# Reference: US7737169B2, “Anionically substituted 7-nitroindoline derivatives and their uses” (Medical Research Council, priority 2005, dated 2010)
# Key:
# GABA receptors = details: caged ester before photolysis; cited from earlier work
# GABA channels = experiment: photolytic release of GABA onto neuronal cells, current responses (FIG. 1); assay type: cell-based
# From the text: FIG. 1. Current responses to photolytic release of GABA from various concentrations of 6 onto two different neuronal cells, as specified in the FIGURE. The experimental set-up and protocol was as described in reference 4.
# A previous evaluation of nitroindoline-caged amino acids in neural tissue has been published^4. […] Tests described here were to assess the photolytic efficiency of GABA release in a neurophysiological experiment with particular attention to point (3), namely the presence or absence of interference of the new caged GABA with GABA-activated channels. If interference is low the expectation is that the rise-time of the receptor activation by photoreleased GABA in the presence of high cage concentration should be similar to that generated by endogenously released GABA, rising in 1-2 ms.
Compound,pharmacological effects (GABA receptors),"rise-time of current through GABA channels (GABA channels; 0.5 mM GABA released, 1.5 mM caged GABA present, FIG. 1 left panel) [ms]","amplitude and rate of rise of currents through GABA channels (GABA channels; 20-200 μm GABA released by different photolysis intensities, 1.4 mM caged GABA present, FIG. 1 right panel)"
"NCCCC(=O)OC(C(=O)O)c1ccccc1[N+](=O)[O-] (stereo not drawn) [Compound 5, α-carboxy-2-nitrobenzyl ester of GABA]",no pharmacological effects,,
"NCCCC(=O)N1CCc2c(OC(COP(=O)(O)O)COP(=O)(O)O)ccc([N+](=O)[O-])c21 [Compound 6, 1-(4-Aminobutanoyl)-4-[1,3-bis(dihydroxyphosphoryloxy)propan-2-yloxy]-7-nitroindoline]",,1,increasing amplitudes and rates of rise at high concentration
